The source of these data is PubChem BioAssay (NCI).

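Cultured in 96-well plates, cells were exposed to test compound for 48 hours across five concentrations. Abbreviation: GI50, concentration required for 50% inhibition of growth. At the TGI there is no net growth.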 Bounds are passed on as bounds.

Some test systems named below: CCRF-CEM leukemia; HCT-15 colon; HOP-62 NSCLC; HT29 colon; NCI-H460 lung; OVCAR-3 ovarian; OVCAR-4 ovarian; SK-MEL-28 melanoma; SK-OV-3 ovarian; SNB-19 CNS.
What all share (assay): NCI tumour cell line growth inhibition, 48 h

Turning to `Nc1nncs1`, the TGI in the experiment on CCRF-CEM leukemia is greater than 5000 µM; with HCT-15 colon it was 4920 µM; in the experiment on HOP-62 NSCLC, 1700 µM; with HT29 colon, greater than 3390 µM; with NCI-H460 lung it was 3750 µM; in the experiment on OVCAR-3 ovarian it was greater than 5000 µM. In addition, the TGI was greater than 5000 µM in the experiment with OVCAR-4 ovarian, greater than 5000 µM in the experiment on SK-MEL-28 melanoma, 928 µM with SK-OV-3 ovarian and greater than 5000 µM in the experiment on SNB-19 CNS.

Take `O=C(O)C(Br)Cc1ccc2c(c1)OCO2` (stereo unspecified): the TGI in the experiment with CCRF-CEM leukemia, in the experiment with HCT-15 colon, in the experiment with HOP-62 NSCLC, in the experiment with HT29 colon, in the experiment with NCI-H460 lung and with OVCAR-3 ovarian was greater than 100 µM in each case. Also, the TGI in the experiment with OVCAR-4 ovarian, in the experiment with SK-MEL-28 melanoma, in the experiment with SK-OV-3 ovarian and in the experiment on SNB-19 CNS was greater than 100 µM each time.

Turning to `COc1cc2c3c(n(C4CCNCC4)c(=O)c2cc1OC)-c1cc2c(cc1C3=O)OCO2`, the GI50 with CCRF-CEM leukemia is 0.287 µM; in the experiment on HCT-15 colon, 0.396 µM; in the experiment with HT29 colon, 0.264 µM; in the experiment with NCI-H460 lung, 0.119 µM; in the experiment on OVCAR-3 ovarian, 1.2 µM; with OVCAR-4 ovarian, 1.42 µM. Further, in the experiment on SK-OV-3 ovarian, the GI50 was 0.402 µM. For the same compound, the TGI in the experiment on CCRF-CEM leukemia was determined as 2.25 µM; with HCT-15 colon, 1.77 µM; in the experiment with HT29 colon it was 2.33 µM; with NCI-H460 lung, 0.276 µM; with OVCAR-3 ovarian, 2.6 µM; with OVCAR-4 ovarian, 2.95 µM. In the experiment on SK-OV-3 ovarian, this compound registered a TGI of 1.75 µM.

Take `COc1ccc(/C=C/[N+](=O)[O-])cc1`: the TGI in the experiment with HCT-15 colon is 15.2 µM; in the experiment on HOP-62 NSCLC it was greater than 100 µM; with HT29 colon it was 11.2 µM; in the experiment on NCI-H460 lung, 55.3 µM; in the experiment with OVCAR-3 ovarian it was 8.62 µM; with OVCAR-4 ovarian, 38.2 µM. Besides, the results for the TGI in the experiment with SK-MEL-28 melanoma and in the experiment with SNB-19 CNS were 28.3 µM and 12.7 µM, respectively.

In the case of `NC(=O)c1cc(C2OC(CO)C(O)C2O)nn1-c1ccc([N+](=O)[O-])cc1` (stereo unspecified), the TGI in the experiment on CCRF-CEM leukemia, with HCT-15 colon, in the experiment with HOP-62 NSCLC, in the experiment on HT29 colon, in the experiment with NCI-H460 lung and with OVCAR-3 ovarian was greater than 100 µM in each case. Also, the TGI in the experiment on OVCAR-4 ovarian, in the experiment on SK-MEL-28 melanoma, with SK-OV-3 ovarian and in the experiment on SNB-19 CNS was greater than 100 µM in each case.

`CC1(C)N=C(N)N=C(N)N1c1cccc(OCc2cccc([N+](=O)[O-])c2)c1`: the TGI was greater than 100 µM in the experiment with CCRF-CEM leukemia; greater than 100 µM with HCT-15 colon; greater than 100 µM in the experiment with HOP-62 NSCLC; greater than 100 µM in the experiment with HT29 colon; 51.6 µM in the experiment with NCI-H460 lung; greater than 73.9 µM in the experiment on OVCAR-3 ovarian. Further, the TGI in the experiment with OVCAR-4 ovarian, in the experiment with SK-MEL-28 melanoma, with SK-OV-3 ovarian and in the experiment on SNB-19 CNS was greater than 100 µM throughout.

On to `O=C(O)CNCc1c2ccccc2[n+]([O-])c2ccccc12`, for which the TGI with CCRF-CEM leukemia, in the experiment with HCT-15 colon, in the experiment with HOP-62 NSCLC, with HT29 colon, with NCI-H460 lung and in the experiment on OVCAR-3 ovarian was greater than 100 µM throughout. Also, the TGI in the experiment on OVCAR-4 ovarian, with SK-MEL-28 melanoma, with SK-OV-3 ovarian and in the experiment with SNB-19 CNS was greater than 100 µM throughout.

On to `S=C1NN=C2C(=C3CCCC4C5CCCCC5N2C34)N1` (stereo unspecified), for which the TGI in the experiment with CCRF-CEM leukemia, with HCT-15 colon, in the experiment with HOP-62 NSCLC, with OVCAR-3 ovarian, in the experiment with OVCAR-4 ovarian and with SK-MEL-28 melanoma was greater than 100 µM each time. In addition, the TGI in the experiment with SK-OV-3 ovarian and with SNB-19 CNS was greater than 100 µM each time.

For `O=C1c2ccccc2C(=O)c2c(O)c(O)cc(O)c21`, the TGI with CCRF-CEM leukemia is greater than 100 µM; in the experiment with HCT-15 colon it was greater than 100 µM; in the experiment with HOP-62 NSCLC it was 69.9 µM; with NCI-H460 lung it was greater than 100 µM; in the experiment with OVCAR-3 ovarian, 64.3 µM; in the experiment on OVCAR-4 ovarian, greater than 100 µM. Moreover, the results for the TGI with SK-MEL-28 melanoma, in the experiment with SK-OV-3 ovarian and with SNB-19 CNS were greater than 100 µM, 82.7 µM and greater than 100 µM, respectively.

Turning to `O=C(O)Cc1[nH]cnc1C(=O)O`, the TGI in the experiment on CCRF-CEM leukemia, with HCT-15 colon, in the experiment on HOP-62 NSCLC, in the experiment with HT29 colon, in the experiment with NCI-H460 lung and in the experiment on OVCAR-3 ovarian was greater than 100 µM throughout. Besides, the TGI in the experiment on OVCAR-4 ovarian, with SK-MEL-28 melanoma, in the experiment with SK-OV-3 ovarian and in the experiment with SNB-19 CNS was greater than 100 µM throughout.

As to `COC1/C=C\OC2(C)Oc3c(C)c(O)c4c(O)c(c(CN(C)C)c(O)c4c3C2=O)NC(=O)/C(C)=C\C=C/C(C)C(O)C(C)C(O)C(C)C(OC(C)=O)C1C` (stereo unspecified), the TGI in the experiment with HCT-15 colon is greater than 100 µM; in the experiment with HOP-62 NSCLC it was greater than 100 µM; in the experiment on HT29 colon, 54.4 µM; in the experiment with NCI-H460 lung it was greater than 100 µM; in the experiment with OVCAR-3 ovarian, greater than 100 µM; in the experiment on OVCAR-4 ovarian, greater than 100 µM. The values for the TGI in the experiment on SK-MEL-28 melanoma, in the experiment with SK-OV-3 ovarian and with SNB-19 CNS were 97.5 µM, greater than 100 µM and greater than 100 µM, respectively.

For `COc1ccc(/C(Cl)=C(\C=O)c2ccc(Cl)c(Cl)c2)cc1OC`, the TGI turned out to be 8.72 µM in the experiment with CCRF-CEM leukemia; 20.7 µM in the experiment with HCT-15 colon; 31.7 µM in the experiment on HOP-62 NSCLC; 8.77 µM in the experiment on HT29 colon; 12.4 µM with NCI-H460 lung; 26.3 µM with OVCAR-3 ovarian. The TGI was 28 µM with SK-MEL-28 melanoma, 75.4 µM with SK-OV-3 ovarian and 65.9 µM with SNB-19 CNS.

Regarding `CCCCCCCCCCCCCCCCOCCCOP(=O)(O)C1CCCN(O)C1=O` (stereo unspecified), the GI50 with CCRF-CEM leukemia was 0.553 µM; in the experiment on HCT-15 colon, 0.472 µM; with HOP-62 NSCLC it was 0.837 µM; in the experiment on HT29 colon, 0.953 µM; in the experiment with NCI-H460 lung, 0.375 µM; with OVCAR-3 ovarian, 2.77 µM. The GI50 with OVCAR-4 ovarian is 2.43 µM; with SK-MEL-28 melanoma, 3.46 µM; in the experiment with SK-OV-3 ovarian, 3.62 µM; in the experiment with SNB-19 CNS, 0.63 µM. Moreover, the TGI in the experiment on CCRF-CEM leukemia was found to be 30 µM; in the experiment on HCT-15 colon, 12.1 µM; in the experiment with HOP-62 NSCLC, 18.6 µM; in the experiment on HT29 colon, 83.5 µM; with NCI-H460 lung it was 4.51 µM; in the experiment on OVCAR-3 ovarian it was 16.4 µM. The TGI with OVCAR-4 ovarian worked out at 19.2 µM; in the experiment on SK-MEL-28 melanoma, 44.3 µM; with SK-OV-3 ovarian, 16.7 µM; in the experiment on SNB-19 CNS it was 14.5 µM.

Consider `COC(=O)c1nc2c3c(cccc3c1C(=O)OC)Nc1ccccc1-2`, for which the TGI in the experiment with CCRF-CEM leukemia was greater than 100 µM; in the experiment with HOP-62 NSCLC it was 71.7 µM; in the experiment on HT29 colon it was greater than 100 µM; with NCI-H460 lung it was 77.9 µM; in the experiment on OVCAR-3 ovarian it was greater than 100 µM; with OVCAR-4 ovarian, greater than 100 µM. The TGI with SK-MEL-28 melanoma, with SK-OV-3 ovarian and with SNB-19 CNS was greater than 100 µM each time.

As to `COc1cc2c3c(c4cc(OC)c(OC)cc4c2cc1OC)[C@H](O)[C@@H]1CCCN1C3`, the TGI with CCRF-CEM leukemia was greater than 100 µM; in the experiment on HCT-15 colon, 5.45 µM; with HOP-62 NSCLC it was 0.57 µM; in the experiment on HT29 colon, 1.53 µM; with NCI-H460 lung, 0.72 µM; with OVCAR-3 ovarian, 1.18 µM. The TGI with OVCAR-4 ovarian is 0.702 µM; with SK-MEL-28 melanoma, greater than 100 µM; in the experiment on SK-OV-3 ovarian, 1.69 µM; with SNB-19 CNS it was greater than 100 µM.
